The values that follow are results of earlier work, collected in patent US8431154B2, “Oral dosage form containing a PDE 4 inhibitor as an active ingredient and polyvinylpyrrolidone as excipient” (Takeda GmbH, priority 2002, dated 2013).

For this series the following is noted: as referred to for U.S. Pat. No. 5,286,494.

Take `COc1ccc(C2CNC(=O)C2)cc1OC1CCCC1` (stereo not shown) [Rolipram]: the solubility result was “solubility is slight”.
